Laboratory results from ChEMBL document CHEMBL3832761, “MMV Pathogen Box Bioactivity Data” (2017).
Values after ≈ are worked out from the molar mass of the structure shown.

Legend:
Assay type in all cases: functional
[1] = system: Mycobacterium tuberculosis; assay: AntiMycobacterium tuberculosis activity 2-week Alamar Blue 7H9/ADC/Tw MIC (uM); conditions: 336 h
[2] = system: Mycobacterium tuberculosis; assay: AntiMycobacterium tuberculosis activity Non-Replicating form: Average MIC90 (uM)
[3] = system: Mycobacterium tuberculosis; assay: (§1) AntiMycobacterium tuberculosis activity day 10 in 7H9/2.5mM butyrate/pH6/0.1mM nitrite MIC90 (uM); conditions: 240 h
[4] = system: Mycobacterium tuberculosis; assay: AntiMycobacterium tuberculosis activity 1-week 7H9/glucose/BSA/Tx MIC (uM); conditions: 168 h
[5] = system: Mycobacterium tuberculosis; assay: AntiMycobacterium tuberculosis activity 1-week 7H9/ADC/Tw MIC (uM); conditions: 168 h
[6] = system: Mycobacterium tuberculosis; assay: AntiMycobacterium tuberculosis activity day 21 MIC99 in 7H9/2.5mM butyrate/pH6/0.1mM nitrite MIC99 (uM); conditions: 504 h
[7] = system: Mycobacterium tuberculosis; assay: AntiMycobacterium tuberculosis activity 2-week 7H9/DPPC/cholesterol/BSA/Tx MIC (uM); conditions: 336 h
[8] = system: Mycobacterium tuberculosis; assay: AntiMycobacterium tuberculosis activity 1-week 7H9/DPPC/cholesterol/BSA/Tx MIC (uM); conditions: 168 h
[9] = system: Mycobacterium tuberculosis; assay: AntiMycobacterium tuberculosis activity 2-week Alamar Blue 7H9/cholesterol/BSA/Tx MIC (uM); conditions: 336 h
[10] = system: Mycobacterium tuberculosis; assay: AntiMycobacterium tuberculosis activity 2-week GAST/Fe MIC (uM); conditions: 336 h
[11] = system: Mycobacterium tuberculosis; assay: AntiMycobacterium tuberculosis activity Replicating form: Average MIC90 (uM)
[12] = system: Mycobacterium tuberculosis; assay: as §1; conditions: 240 h; remark: listed apart in the source
[13] = system: Mycobacterium tuberculosis; assay: AntiMycobacterium tuberculosis activity day 21 in 7H9/2.5mM butyrate/pH6/0.1mM nitrite MIC90 (uM); conditions: 504 h
[14] = system: Mycobacterium tuberculosis; assay: AntiMycobacterium tuberculosis activity 1-week GAST/Fe MIC (uM); conditions: 168 h
[15] = system: Mycobacterium tuberculosis; assay: AntiMycobacterium tuberculosis activity 1-week 7H9/cholesterol/BSA/Tx MIC (uM); conditions: 168 h
HepG2 = assay: HepG2 CC50 (uM) Cytotoxicity; conditions: Homo sapiens
[16] = system: Mycobacterium tuberculosis; assay: AntiMycobacterium tuberculosis activity 2-week 7H9/ADC/Tw MIC (uM); conditions: 336 h
[17] = system: Mycobacterium tuberculosis; assay: AntiMycobacterium tuberculosis activity 2-week 7H9/glucose/BSA/Tx MIC (uM); conditions: 336 h

O=C(NC1CCCCC1)N1CCN(Cc2ccc3c(c2)OCO3)CC1
MIC [1]: 12.5 µM (≈ 4.32 µg/mL)
MIC90 [2]: > 100 µM
MIC90 [3]: > 50 µM
MIC [4]: > 50 µM
MIC [5]: > 50 µM
MIC [6]: 50 µM (≈ 17.3 µg/mL)
MIC [7]: 50 µM (≈ 17.3 µg/mL)
MIC [8]: 9.4 µM (≈ 3.25 µg/mL)
MIC [9]: 12.5 µM (≈ 4.32 µg/mL)
MIC [10]: 1.2 µM (≈ 0.415 µg/mL)
MIC90 [11]: > 100 µM
MIC90 [12]: > 50 µM
MIC90 [13]: 50 µM (≈ 17.3 µg/mL)
MIC [14]: 0.78 µM (≈ 0.269 µg/mL)
MIC [15]: 6.25 µM (≈ 2.16 µg/mL)
CC50 (HepG2): > 100 µM
MIC [16]: > 50 µM
MIC [17]: > 50 µM

Cc1cc(Cl)ccc1NC(=O)CCc1ccc(S(=O)(=O)NCC(C)C)cc1
MIC [1]: 6.25 µM (≈ 2.56 µg/mL)
MIC90 [2]: 13.4 µM (≈ 5.49 µg/mL)
MIC90 [3]: > 50 µM
MIC [4]: 4.7 µM (≈ 1.92 µg/mL)
MIC [5]: 4.7 µM (≈ 1.92 µg/mL)
MIC [6]: 50 µM (≈ 20.4 µg/mL)
MIC [7]: 3.13 µM (≈ 1.28 µg/mL)
MIC [8]: 3.13 µM (≈ 1.28 µg/mL)
MIC [9]: 6.25 µM (≈ 2.56 µg/mL)
MIC [10]: 2.3 µM (≈ 0.941 µg/mL)
MIC90 [11]: 14.4 µM (≈ 5.87 µg/mL)
MIC90 [12]: > 50 µM
MIC90 [13]: 25 µM (≈ 10.2 µg/mL)
MIC [14]: 2.3 µM (≈ 0.941 µg/mL)
MIC [15]: 3.13 µM (≈ 1.28 µg/mL)
CC50 (HepG2): > 100 µM
MIC [16]: 6.25 µM (≈ 2.56 µg/mL)
MIC [17]: 6.25 µM (≈ 2.56 µg/mL)

CCOC(=O)NC(=O)c1ccsc1NC(=O)c1nc2ccccc2s1
MIC [1]: 0.15 µM (≈ 0.0563 µg/mL)
MIC90 [2]: 0.34 µM (≈ 0.128 µg/mL)
MIC90 [3]: ≤ 0.04 µM
MIC [4]: 0.2 µM (≈ 0.0751 µg/mL)
MIC [5]: 0.2 µM (≈ 0.0751 µg/mL)
MIC [6]: 0.09 µM (≈ 0.0338 µg/mL)
MIC [7]: 0.1 µM (≈ 0.0375 µg/mL)
MIC [8]: 0.1 µM (≈ 0.0375 µg/mL)
MIC [9]: 0.1 µM (≈ 0.0375 µg/mL)
MIC [10]: < 0.02 µM
MIC90 [11]: 0.69 µM (≈ 0.259 µg/mL)
MIC90 [12]: 0.19 µM (≈ 0.0713 µg/mL)
MIC90 [13]: ≤ 0.04 µM
MIC [14]: < 0.02 µM
MIC [15]: 0.05 µM (≈ 0.0188 µg/mL)
CC50 (HepG2): 47 µM
MIC [16]: 0.15 µM (≈ 0.0563 µg/mL)
MIC [17]: 0.2 µM (≈ 0.0751 µg/mL)

COc1ccc(OC(C)C(=O)Nc2ccc(Cl)cc2C)cc1 (configuration not stated)
MIC [1]: 6.25 µM (≈ 2 µg/mL)
MIC90 [2]: 12.2 µM (≈ 3.91 µg/mL)
MIC90 [3]: 25 µM (≈ 7.99 µg/mL)
MIC [4]: 9.4 µM (≈ 3.01 µg/mL)
MIC [5]: 4.7 µM (≈ 1.5 µg/mL)
MIC [6]: 50 µM (≈ 16 µg/mL)
MIC [7]: 6.25 µM (≈ 2 µg/mL)
MIC [8]: 6.25 µM (≈ 2 µg/mL)
MIC [9]: 12.5 µM (≈ 4 µg/mL)
MIC [10]: 2.3 µM (≈ 0.736 µg/mL)
MIC90 [11]: 14.6 µM (≈ 4.68 µg/mL)
MIC90 [12]: > 50 µM
MIC90 [13]: 25 µM (≈ 7.99 µg/mL)
MIC [14]: 2.3 µM (≈ 0.736 µg/mL)
MIC [15]: 9.4 µM (≈ 3.01 µg/mL)
CC50 (HepG2): > 100 µM
MIC [16]: 6.25 µM (≈ 2 µg/mL)
MIC [17]: 9.4 µM (≈ 3.01 µg/mL)

Cc1cc(O)nc(-n2nc(C)cc2C)n1
MIC [1]: 50 µM (≈ 10.2 µg/mL)
MIC90 [2]: > 43.3 µM
MIC90 [3]: 6.25 µM (≈ 1.28 µg/mL)
MIC [4]: 25 µM (≈ 5.11 µg/mL)
MIC [5]: 37 µM (≈ 7.56 µg/mL)
MIC [6]: 12.5 µM (≈ 2.55 µg/mL)
MIC [7]: > 50 µM
MIC [8]: 50 µM (≈ 10.2 µg/mL)
MIC [9]: 25 µM (≈ 5.11 µg/mL)
MIC [10]: 4.7 µM (≈ 0.96 µg/mL)
MIC90 [11]: > 100 µM
MIC90 [12]: 25 µM (≈ 5.11 µg/mL)
MIC90 [13]: 12.5 µM (≈ 2.55 µg/mL)
MIC [14]: 1.56 µM (≈ 0.319 µg/mL)
MIC [15]: 25 µM (≈ 5.11 µg/mL)
CC50 (HepG2): 60.7 µM
MIC [16]: 50 µM (≈ 10.2 µg/mL)
MIC [17]: > 50 µM

NC(=O)c1cc(-c2ccsc2)ccc1OCCOc1ccccc1
MIC [1]: 19 µM (≈ 6.45 µg/mL)
MIC90 [2]: 3.96 µM (≈ 1.34 µg/mL)
MIC90 [3]: > 50 µM
MIC [4]: > 50 µM
MIC [5]: > 50 µM
MIC [6]: > 50 µM
MIC [7]: > 50 µM
MIC [8]: 12.5 µM (≈ 4.24 µg/mL)
MIC [9]: 6.25 µM (≈ 2.12 µg/mL)
MIC [10]: 0.6 µM (≈ 0.204 µg/mL)
MIC90 [11]: > 100 µM
MIC90 [12]: > 50 µM
MIC90 [13]: > 50 µM
MIC [14]: 0.39 µM (≈ 0.132 µg/mL)
MIC [15]: > 50 µM
CC50 (HepG2): > 100 µM
MIC [16]: > 50 µM
MIC [17]: > 50 µM

O=C(c1[nH]nc2c1CCCC2)N1CCN(Cc2ccc3c(c2)OCO3)CC1
MIC [1]: 4.7 µM (≈ 1.73 µg/mL)
MIC90 [2]: > 15.5 µM
MIC90 [3]: 1.5 µM (≈ 0.553 µg/mL)
MIC [4]: 37 µM (≈ 13.6 µg/mL)
MIC [5]: > 50 µM
MIC [6]: > 50 µM
MIC [7]: 19 µM (≈ 7 µg/mL)
MIC [8]: 4.7 µM (≈ 1.73 µg/mL)
MIC [9]: 1.56 µM (≈ 0.575 µg/mL)
MIC [10]: 0.78 µM (≈ 0.287 µg/mL)
MIC90 [11]: > 100 µM
MIC90 [12]: > 50 µM
MIC90 [13]: 6.25 µM (≈ 2.3 µg/mL)
MIC [14]: 0.39 µM (≈ 0.144 µg/mL)
MIC [15]: 0.78 µM (≈ 0.287 µg/mL)
CC50 (HepG2): > 100 µM
MIC [16]: > 50 µM
MIC [17]: > 50 µM

Nc1cccnc1Nc1ccc(Cl)cc1
MIC [1]: 37 µM (≈ 8.13 µg/mL)
MIC90 [2]: 3.65 µM (≈ 0.802 µg/mL)
MIC90 [3]: 12.5 µM (≈ 2.75 µg/mL)
MIC [4]: 50 µM (≈ 11 µg/mL)
MIC [5]: > 50 µM
MIC [6]: > 50 µM
MIC [7]: 19 µM (≈ 4.17 µg/mL)
MIC [8]: 12.5 µM (≈ 2.75 µg/mL)
MIC [9]: 4.7 µM (≈ 1.03 µg/mL)
MIC [10]: 50 µM (≈ 11 µg/mL)
MIC90 [11]: 4.3 µM (≈ 0.945 µg/mL)
MIC90 [12]: > 50 µM
MIC90 [13]: 50 µM (≈ 11 µg/mL)
MIC [14]: 50 µM (≈ 11 µg/mL)
MIC [15]: 9.4 µM (≈ 2.06 µg/mL)
CC50 (HepG2): 9 µM
MIC [16]: > 50 µM
MIC [17]: 50 µM (≈ 11 µg/mL)

O=C(C1CCN(c2cc(-n3cccc3)ncn2)CC1)N1CCc2ccccc2C1
MIC [1]: 1.56 µM (≈ 0.604 µg/mL)
MIC90 [2]: 7.62 µM (≈ 2.95 µg/mL)
MIC90 [3]: 12.5 µM (≈ 4.84 µg/mL)
MIC [4]: 2.3 µM (≈ 0.891 µg/mL)
MIC [5]: 0.78 µM (≈ 0.302 µg/mL)
MIC [6]: > 50 µM
MIC [7]: 3.13 µM (≈ 1.21 µg/mL)
MIC [8]: 3.13 µM (≈ 1.21 µg/mL)
MIC [9]: 3.13 µM (≈ 1.21 µg/mL)
MIC [10]: 0.6 µM (≈ 0.232 µg/mL)
MIC90 [11]: 7.41 µM (≈ 2.87 µg/mL)
MIC90 [12]: > 50 µM
MIC90 [13]: 50 µM (≈ 19.4 µg/mL)
MIC [14]: 0.39 µM (≈ 0.151 µg/mL)
MIC [15]: 3.13 µM (≈ 1.21 µg/mL)
CC50 (HepG2): > 100 µM
MIC [16]: 1.56 µM (≈ 0.604 µg/mL)
MIC [17]: 2.3 µM (≈ 0.891 µg/mL)
